System: Vγ9Vδ2 T cells
Conditions: 7-day co-culture, 5 μM ZA, 10 U/mL IL-2; mean of two donors

O=P(O)(O)C(O)(Cn1ccnc1)P(=O)(O)O [zoledronic acid]
expansion rate of Vγ9δ2 T cells: about 15 fold
